# ChEMBL document CHEMBL1201862, “PubChem BioAssay data set” (2004)
#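 96-well plates; 48 h exposure; 5 concentrations. Endpoints by linear interpolation between flanking doses. Not reached: highest tested concentration assigned. Abbreviation: GI50, concentration required for 50% inhibition of growth.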 The source made the active and inactive calls. Cut-off read from the data, not from the text of the source: active = GI50 up to about 1.1 µM and inactive = higher.
# Assays:
# Assay in all cases: inhibition of tumour cell growth, NCI panel, 48 h
# DLD-1 = tested on: DLD-1
# DMS-273 = tested on: DMS-273
# EKVX = tested on: EKVX
# HCT-15 = tested on: HCT-15
# HL-60 = tested on: HL-60
# HT-29 = tested on: HT-29
# IGROV-1 = tested on: IGROV-1
# KM-20L2 = tested on: KM-20L2
# KM12 = tested on: KM12
# M19-MEL = tested on: M19-MEL
# NCI-H226 = tested on: NCI-H226
# OVCAR-8 = tested on: OVCAR-8
# RXF 393 = tested on: RXF 393
# SF-268 = tested on: SF-268
# SK-OV-3 = tested on: SK-OV-3
# SNB-75 = tested on: SNB-75
# SNB-78 = tested on: SNB-78
# SW-620 = tested on: SW-620
# UACC-62 = tested on: UACC-62
# XF498 = tested on: XF498
Compound,GI50 (DLD-1),GI50 (DMS-273),GI50 (EKVX),GI50 (HCT-15),GI50 (HL-60),GI50 (HT-29),GI50 (IGROV-1),GI50 (KM-20L2),GI50 (KM12),GI50 (M19-MEL),GI50 (NCI-H226),GI50 (OVCAR-8),GI50 (RXF 393),GI50 (SF-268),GI50 (SK-OV-3),GI50 (SNB-75),GI50 (SNB-78),GI50 (SW-620),GI50 (UACC-62),GI50 (XF498)
O=C(CC1Sc2ccccc2NC1=O)Nc1ccccc1[N+](=O)[O-] (centres undefined),> 100 µM (inactive),> 100 µM (inactive),> 100 µM (inactive),> 100 µM,> 100 µM (inactive),> 100 µM (inactive),> 100 µM (inactive),> 100 µM (inactive),> 100 µM (inactive),> 100 µM (inactive),> 100 µM (inactive),> 100 µM (inactive),> 100 µM (inactive),> 100 µM (inactive),> 100 µM (inactive),> 100 µM (inactive),> 100 µM (inactive),> 100 µM (inactive),> 100 µM (inactive),> 100 µM (inactive)
Cc1n(CC(=O)c2ccc([N+](=O)[O-])cc2)c2c([n+]1CC(C)C)C(=O)c1ccccc1C2=O,< 0.0394 µM (active),< 0.01 µM (active),< 0.0109 µM (active),2.88 µM,< 0.01 µM (active),< 0.0131 µM (active),< 0.01 µM (active),< 0.01 µM (active),< 0.0211 µM (active),–,< 0.0111 µM (active),< 0.01 µM (active),–,< 0.01 µM (active),0.361 µM (active),< 0.0356 µM (active),< 0.0137 µM (active),< 0.01 µM (active),< 0.0334 µM (active),–
O=C1C(Cl)N(c2ccc([N+](=O)[O-])cc2)C1c1c[nH]c2ccccc12 (centres undefined),38.1 µM (inactive),–,> 100 µM (inactive),–,31 µM (inactive),48.1 µM (inactive),77.6 µM (inactive),41.2 µM (inactive),66.2 µM (inactive),> 100 µM (inactive),–,> 100 µM (inactive),> 100 µM (inactive),> 100 µM (inactive),56.6 µM (inactive),> 100 µM (inactive),–,> 100 µM (inactive),51.3 µM (inactive),> 100 µM (inactive)
CCCCSCCC(N)P(=O)(O)O (centres undefined),–,–,–,> 100 µM,> 100 µM (inactive),> 100 µM (inactive),> 100 µM (inactive),–,–,–,> 100 µM (inactive),> 100 µM (inactive),–,–,> 100 µM (inactive),> 100 µM (inactive),–,> 100 µM (inactive),–,–
Cc1nc2c(n1C)C(=O)c1nc(CBr)[nH]c(=O)c1C2=O,> 100 µM (inactive),> 100 µM (inactive),24.4 µM (inactive),> 100 µM,38.7 µM (inactive),39.4 µM (inactive),> 100 µM (inactive),> 100 µM (inactive),–,> 100 µM (inactive),–,> 100 µM (inactive),> 100 µM (inactive),> 100 µM (inactive),75.7 µM (inactive),–,–,> 100 µM (inactive),> 100 µM (inactive),> 10 µM (inactive)
Cc1ccc(N2Cc3c(ccc4ccccc34)OP2(=S)N2CCCC2)cc1 (centres undefined),> 100 µM (inactive),> 100 µM (inactive),> 100 µM (inactive),> 100 µM,> 100 µM (inactive),> 100 µM (inactive),> 100 µM (inactive),> 100 µM (inactive),> 100 µM (inactive),> 100 µM (inactive),> 100 µM (inactive),> 100 µM (inactive),> 100 µM (inactive),> 100 µM (inactive),> 100 µM (inactive),> 100 µM (inactive),> 100 µM (inactive),> 100 µM (inactive),> 100 µM (inactive),> 100 µM (inactive)
O=NN(CC1(O)OCC(O)C(O)C1O)C(Cc1c[nH]c2ccccc12)C(=O)O (centres undefined),> 100 µM (inactive),> 100 µM (inactive),> 100 µM (inactive),–,> 100 µM (inactive),> 100 µM (inactive),> 100 µM (inactive),> 100 µM (inactive),> 100 µM (inactive),> 100 µM (inactive),–,> 100 µM (inactive),> 100 µM (inactive),–,> 100 µM (inactive),> 100 µM (inactive),> 100 µM (inactive),> 100 µM (inactive),> 100 µM (inactive),> 100 µM (inactive)
c1ccc2c(NCCCCCCCCNc3cccc4ccccc34)cccc2c1,34.2 µM (inactive),29.6 µM (inactive),> 10 µM (inactive),25.8 µM,22.7 µM (inactive),32.4 µM (inactive),49.8 µM (inactive),25.2 µM (inactive),> 100 µM (inactive),> 10 µM (inactive),85.1 µM (inactive),24.5 µM (inactive),–,65 µM (inactive),> 100 µM (inactive),21.4 µM (inactive),46.8 µM (inactive),21.1 µM (inactive),20.5 µM (inactive),78.9 µM (inactive)
